Experimental data reported in US20060019958A1, “Immunity-related protein kinase inhibitors” (priority 2002, published 2006).

Columns and labels:
[1] = tested on: IκBα phosphorylation in HepG2 cells; assay: Detection of phosphorylated IκBα by Western blot method under TNFα stimulation; assay type: cell-based; conditions: 40 ng/ml human TNFα, 20 μM MG-132
Procedure: Detection of Phosphorylated IκBα by Western Blot Method
[…] After 45 minutes, 40 ng/ml of human TNFα was further added. Ten minutes after the addition of the TNFα, the cells were collected, and a cell lysate was prepared by using a tip-type ultrasonic processor (Dr.Hielsher; UP-50H). After the measurement of a protein concentration using a BCA protein assay kit by Pierce (BSA standard), 30 μg of the cell lysate was applied to each lane of 12% SDS slab gel (mini gel) and an electrophoresis was carried out. After the electrophoresis, a detection of phorphorylated IκBα by Western blot method was carried out using anti-phosphorylated IκBα (Ser32) antibody (Cell Signaling) as a primary antibody and […] as a secondary antibody.

[2] = tested on: NF-κB activation by forced expression of MEKK-1 in HeLa cells; assay: Inhibition of NF-κB activation by forced expression of MEKK-1 (luciferase reporter assay); assay type: cell-based, human; conditions: MEKK-1 forced expression, 24 hours
Description: Measurement of Inhibition of NF-κB Activation by Forced Expression of MEKK-1
Using a transfection reagent(Effectene; QIAGEN), human uterine cancer cell strain HeLa was cotransfected with a plasumid (pNF κB-Luc Reporter Plasmid: STRATAGENE) integrated with an oligonucleotide having five tandem copies of NF-κB binding sequences(TGGGGACTTTCCGC) on an upstream region of the firefly luciferase gene(Luc) and the MEKK-1 gene-contained expression vector(pFC-MEKK: STRATAGENE) according to the QIAGEN's protocol, and the cells were incubated for 24 hours. After incubation in the presence or absence of a test compound for 24 hours, intracellular luciferase activity was measured by using PicaGene LT(TOYO INK MFG Co., Ltd.) and a chemical luminescence measurement apparatus(SPECTRAFluor Plus; TECAN). The inhibitory ratio was measured as a ratio relative to the value of the luciferase activity in the absence of the test compound.

Row | Compound | Inhibition Ratio of I κ B phosphorylation(%) ([1]; Drug Concentration 2 μg/ml) | other results
1 | CC(C)(C)c1nc(NC(=O)c2cc(Br)ccc2O)sc1N1CCN(c2ccccc2)CC1 [compound 201, 5-Bromo-N-{4-[(1,1-dimethyl)ethyl]-5-(4-phenylpiperazin-1-yl)thiazol-2-yl}-2-hydroxybenzamide] | 57.4% | 
2 | O=C(Nc1cc(C(F)(F)F)cc(C(F)(F)F)c1)c1cc(Cl)ccc1O [Compound No. 50, N-[3,5-Bis(trifluoromethyl)phenyl]-5-chloro-2-hydroxybenzamide] | 43.0% | Inhibitory Ratio of NF-κB Activation(%) ([2]; Drug Concentration 1 μg/ml): 92.6%; Inhibitory Ratio of NF-κB Activation(%) ([2]; Drug Concentration 10 μg/ml): 93.2%
3 | O=C(Nc1cc(C(F)(F)F)cc(C(F)(F)F)c1)c1cc(-n2cccc2)ccc1O [Compound No. 71] | 29.5% | 
4 | CC(C)(C)c1ccc(O)c(C(=O)Nc2cc(C(F)(F)F)cc(C(F)(F)F)c2)c1 [Compound No. 56, N-[3,5-Bis(trifluoromethyl)phenyl]-5-[(1,1-dimethyl)ethyl]-2-hydroxybenzamide] | 31.3% | 
5 | O=C(Nc1cc(C(F)(F)F)cc(C(F)(F)F)c1)c1cc(-c2ccccc2)ccc1O [Compound No. 67] | 43.8% | 
6 | CC(=O)Oc1ccccc1C(=O)Nc1cc(Cl)cc(Cl)c1 [compound 172, 2-acetoxy-N-(3,5-dichlorophenyl)benzamide] |  | melting point: 218 to 219 °C
7 | CC(C)(C)c1nc(NC(=O)c2cc(Br)ccc2O)sc1N1CCOCC1 [compound 199, 5-Bromo-N-{4-[(1,1-dimethyl)ethyl]-5-morpholinothiazol-2-yl}-2-hydroxybenzamide] | 47.9% | 
8 | CC(C)(C)C(=O)c1sc(NC(=O)c2cc(Cl)ccc2O)nc1C(C)(C)C [compound 195, 5-Chloro-N-{4-[(1,1-dimethyl)ethyl]-5-[(2,2-dimethyl)propionyl]thiazol-2-yl}-2-hydroxybenzamide] | 63.5% | 
9 | COc1cc(/C=C/C(=O)CC(=O)/C=C/c2ccc(O)c(OC)c2)ccc1O [curcumin] |  | Inhibition Ratio of I κ B phosphorylation(%) ([1]; Drug Concentration 100 μM): 51.6%
